Where a name gives a salt, the structure may show the parent alone.
Key:
β1-adrenergic receptor = biological target: T1, β1-adrenergic receptor (Rattus norvegicus, UniProt P18090); experiment: Heart membrane binding (β1-effect), [125I]iodocyanopindolol; conditions: rat heart membranes, 1 hour
T1 construct: membranes from rat heart; from tissue; host or cells: rat heart membranes
Text: (§1) β-Adrenergic receptors can be divided into β1, β2 and β 3-subtypes. Activation of β1 -receptors invokes increases in heart rate while activation of β2 -receptors stimulates glycogen breakdown in muscle and thereby prevents glycogen synthesis. Activation of β3 -receptors stimulates lipolysis (the breakdown of adipose tissue triglycerides to glycerol and free fatty acids), and thereby promotes the loss of fat mass. Ccmpounds that stimulate β3 -receptors will have antiobesity activity. In addition, they have hypoglycemic or anti-diabetic activity, but the mechanism of this effect is unknown. A compound that selectively stimulates β3 -receptors, i.e. has little or no β1 or β2 -activity, will have the desired anti-diabetic and/or anti-obesity activity, but without the undesired effects of increased heart rate (β1 -effect) or muscle tremor (β2 -effect).
(§2) Selectivity of a compound is determined using the following procedures.
Binding assays for β1 -effect are carried out by the use of membranes from rat heart, and β2 -effect by the use of membranes from rat lung by the method described in Neve, et al., J. Pharmacol. Exp. Ther., 1985, 235, 657-664 with the following exceptions:
1. the incubation volume is 0.5 ml,
2. the incubation time is 1 hour,
3. the radioligand is [^125 I]iodocyanopindolol,
4. (-)-isoproterenol (50 μM) is used to define specific binding, and
5. the filters are washed at 4° C.

β3-adrenergic receptor = biological target: T2, β3-adrenergic receptor (Rattus norvegicus, UniProt P26255); experiment: Stimulation of adipocyte lipolysis (β3-effect), glycerol generated; type: cell-based; conditions: rat epididymal adipocytes, 30 min at 37° C.; concentration giving 50% of the compound's own maximum rate of lipolysis; read-out: Lipolysis (beta3)(EC50 nM)
T2 construct: Rat epididymal fat pads are excised and placed in 0.9% saline; from tissue; host or cells: adipocytes isolated by collagenase from rat epididymal fat pads
Text: as §1, §2
The β3 -effect of the compounds is determined by their ability to stimulate adipocyte lipolysis. Rat epididymal fat pads are excised and placed in 0.9% saline. Four grams of tissue is transferred to a flask with 20 ml of aerated Krebs-Henseleit bicarbonate (KHB) buffer containing 3% fatty acid-free bovine serum albumin to which 75 mg of crude bacterial collagenase (Worthington) has been added. The tissue is incubated for about 45 minutes at 37° C. with gentle shaking. The cells are then washed three times with two volumes of KHB buffer, filtered through two layers of gauze, and brought to a final volume of 80 ml with KHB buffer. One ml aliquots of the cell suspension is added to plastic test tubes containing the appropriate additions of vehicle or compound. The cells are gassed for 1 minute with 95%O2 -5%CO2, capped, and incubated at 37° C. with continuous shaking for a total of 30 minutes. The reaction is stopped by adding 0.1 ml of 30% perchloric acid and 0.1 ml of chloroform. After centrifugation, 0.5 ml of supernatant is transferred to another test tube and neutralized with 0.04 ml of 3M K2 CO3 -0.5M triethanolamine. The amount of glycerol generated from the hydrolysis of endogenous triglycerides is determined in a coupled-enzyme spectrophotometric assay. One-tenth milliliter of the neutralized extract is added to a test tube that contains 0.91 ml of assay mixture comprised of the following: 0.84M glycine, 0.42M hydrazine sulfate, 4.2 mM EDTA, 0.9 mM β-NAD, 9.9 mM MgCl2, 1 mM ATP, 17 U of glycerophosphate dehydrogenase, and 4.3 U of glycerokinase. The test tubes are incubated for 40 minutes at 37° C. with constant shaking. The amount of NADH generated, which is proportional to the amount of glycerol, is determined by the increase in absorbance at 340 nm. […]

T2 sequence (P26255 whole entry): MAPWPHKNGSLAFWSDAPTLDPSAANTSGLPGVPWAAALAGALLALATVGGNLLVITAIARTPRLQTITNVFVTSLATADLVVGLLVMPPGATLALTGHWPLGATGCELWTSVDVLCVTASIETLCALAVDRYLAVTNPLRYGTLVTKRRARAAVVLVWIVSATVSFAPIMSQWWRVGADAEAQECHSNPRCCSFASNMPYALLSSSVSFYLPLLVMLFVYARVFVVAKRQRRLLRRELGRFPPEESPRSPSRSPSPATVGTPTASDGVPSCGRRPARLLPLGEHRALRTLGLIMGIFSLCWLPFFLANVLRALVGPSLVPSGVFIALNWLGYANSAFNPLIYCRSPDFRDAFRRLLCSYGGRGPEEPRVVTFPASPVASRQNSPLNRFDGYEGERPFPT
T1 sequence (P18090 whole entry): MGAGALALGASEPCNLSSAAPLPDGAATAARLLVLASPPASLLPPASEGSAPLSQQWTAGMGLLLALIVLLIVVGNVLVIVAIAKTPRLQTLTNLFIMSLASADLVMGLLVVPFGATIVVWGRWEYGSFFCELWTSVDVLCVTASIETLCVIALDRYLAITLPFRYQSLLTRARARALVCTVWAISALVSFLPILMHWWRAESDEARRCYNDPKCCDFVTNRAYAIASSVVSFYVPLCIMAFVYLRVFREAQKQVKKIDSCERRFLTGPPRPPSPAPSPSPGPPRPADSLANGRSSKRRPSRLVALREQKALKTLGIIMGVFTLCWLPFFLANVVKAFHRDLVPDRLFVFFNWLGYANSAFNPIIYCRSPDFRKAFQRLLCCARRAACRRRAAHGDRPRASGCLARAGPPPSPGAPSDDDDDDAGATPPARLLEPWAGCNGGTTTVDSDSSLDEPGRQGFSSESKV

IC50 (β1-adrenergic receptor) [nM] | EC50 (β3-adrenergic receptor) [nM] | SMILES
> 1000 | 4000 | O=C(O)C1(C(=O)O)Oc2cc3c(cc2O1)CC(NCC(O)c1cccc(Cl)c1)CC3 (stereo not drawn) [Example 7, (R*,R*), and (R*,S*)-6-[[2-(3-Chlorophenyl)-2-hydroxyethyl]amino]-5,6,7,8-tetrahydronaphtho[2,3-d]-1,3-dioxole-2,3-dicarboxylic acid disodium salt]
> 1000 | 2590 | O=C(O)C1(C(=O)O)Oc2ccc3c(c2O1)C[C@@H](NC[C@H](O)c1cccc(Cl)c1)C3 [Example 3, [R-(R*,R* or R*,S*)]7-[[2-(3-Chlorophenyl)-2-hydroxyethyl]amino]-7,8-dihydro-6H-indeno[4,5-d]-1,3-dioxole-2,2-dicarboxylic acid disodium salt]
> 1000 | 14.6 | O=C(O)C1(C(=O)O)Oc2ccc3c(c2O1)C[C@H](NC[C@H](O)c1cccc(Cl)c1)C3 [Example 4, [R-(R*,R* or R*,S*)]-7-[[2-(3-Chlorophenyl)-2-hydroxyethyl]amino]-7,8-dihydro-6H-indeno[4,5-d]-1,3-dioxole-2,2-dicarboxylic acid disodium salt]
> 1000 | 100 | O=C(O)C1(C(=O)O)Oc2cc3c(cc2O1)CC(NC[C@H](O)c1cccc(Cl)c1)C3 [Example 5, (R)-7-[[2-(3-Chlorophenyl)-2-hydroxyethyl]amino]7,8-dihydro-6H-indeno[5,6-d]-1,3-dioxole-2,2-dicarboxylic acid disodium salt]
